Measured values: US8536202B2, “Triazole-substituted anthranilamides as pesticides” (Bayer Cropscience AG, priority 2010, dated 2013)
Read-outs that look alike come from different tables or passages of the source.

Legend:
[1] = log P determination by HPLC on reversed-phase columns (EEC Directive 79/831 Annex V.A8); assay type: physicochemical; conditions: pH 2.7
Summary of the method: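 log P from reversed-phase LC-MS retention at pH 2.7, 0.1% formic acid water/acetonitrile gradient 10–95% acetonitrile. Calibrated against C3–C16 unbranched alkan-2-ones, interpolating linearly between adjacent alkanones.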

[2] = test system: larvae of the mustard beetle (Phaedon cochleariae); test: Phaedon test (PHAECO spray treatment); assay type: in vivo; conditions: 168 h, 100 g/ha, after 7 days, read-out: activity in %
Summary of the method: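 Compound dissolved in acetone/dimethylformamide with alkylaryl polyglycol ether emulsifier, then diluted with emulsifier-containing water to test concentration for spray treatment of Phaedon cochleariae larvae. Activity scored after 7 days as % larvae killed (100% = all dead, 0% = none).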

[3] = test system: caterpillars of the armyworm (Spodoptera frugiperda); test: Spodoptera frugiperda test (SPODFR spray treatment); assay type: in vivo; conditions: 168 h, 100 g/ha, after 7 days, read-out: activity in %
Summary of the method: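 Maize leaf discs sprayed with compound diluted in emulsifier-containing water (acetone/DMF solvent, alkylaryl polyglycol ether emulsifier), dried, then infested with armyworm caterpillars. Kill scored after 7 days as % mortality, 100% = all caterpillars dead, 0% = none.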

[4] = reversed-phase C18 HPLC column, HPLC on reversed-phase columns (C 18), EEC Directive 79/831 Annex V.A8, read-out: logP

Row | SMILES | chromatographic logP [1, 4] | pest or weed control at 100 g/ha [2] [%] | pest or weed control at 100 g/ha [3] [%] | chromatographic logP [1]
1 | Cc1cc(C#N)cc(C(=O)NC(C)(C)C)c1NC(=O)c1cc(Cn2nnc3c(Br)cc(OC(F)(F)F)cc32)nn1-c1ncccc1Cl [Example 111] | 4.09 | 100 | 100 | –
2 | Cc1cc(C#N)cc(C(=O)NC(C)(C)C)c1NC(=O)c1cc(Cn2nc3cc(OC(F)(F)F)cc(Br)c3n2)nn1-c1ncccc1Cl [Example 112] | 4.59 | 100 | 100 | –
3 | Cc1cc(C#N)cc(C(=O)NC(C)(C)C)c1NC(=O)c1cc(Cn2nnc3cc(C(F)(F)F)ccc32)nn1-c1ncccc1Cl [Example 113] | – | 100 | 100 | 3.5
4 | Cc1cc(C#N)cc(C(=O)NC(C)(C)C)c1NC(=O)c1cc(Cn2nc3ccc(C(F)(F)F)cc3n2)nn1-c1ncccc1Cl [Example 114] | – | 100 | 100 | 3.94
5 | Cc1cc(Cl)cc(C(=O)NC(C)C2CC2)c1NC(=O)c1cc(Cn2ccnn2)nn1-c1ncccc1Cl (stereo not drawn) [Example 117] | – | 100 | 100 | 2.41
6 | CNC(=O)c1cc(Cl)cc(C)c1NC(=O)c1cc(Cn2nccn2)nn1-c1ncccc1Cl [Example 118] | – | 100 | 100 | 2.03
7 | Cc1cc(Cl)cc(C(=O)NC(C)C)c1NC(=O)c1cc(Cn2nccn2)nn1-c1ncccc1Cl [Example 119] | – | 100 | 100 | 2.5
8 | Cc1cc(Cl)cc(C(=O)NC(C)C2CC2)c1NC(=O)c1cc(Cn2nccn2)nn1-c1ncccc1Cl (stereo not drawn) [Example 122] | – | 100 | 100 | 2.81
9 | CCNC(=O)c1cc(Cl)cc(C)c1NC(=O)c1cc(Cn2ncc(C(F)(F)F)n2)nn1-c1ncccc1Cl [Example 138] | – | 100 | 100 | 3.26
10 | Cc1cc(Cl)cc(C(=O)NC(C)(C)C)c1NC(=O)c1cc(Cn2ncc(C(F)(F)F)n2)nn1-c1ncccc1Cl [Example 140] | – | 100 | 100 | 3.85
11 | Cc1cc(Cl)cc(C(=O)NCC2CC2)c1NC(=O)c1cc(Cn2ncc(C(F)(F)F)n2)nn1-c1ncccc1Cl [Example 141] | – | 100 | 100 | 3.55
12 | Cc1cc(Cl)cc(C(=O)NC2CCC2)c1NC(=O)c1cc(Cn2ncc(C(F)(F)F)n2)nn1-c1ncccc1Cl [Example 142] | – | 100 | 100 | 3.64
13 | NC(=O)c1cc(Cl)cc(Cl)c1NC(=O)c1cc(Cn2ncc(C(F)(F)F)n2)nn1-c1ncccc1Cl [Example 145] | – | 100 | 100 | 2.69
14 | O=C(NC1CC1)c1cc(Cl)cc(Cl)c1NC(=O)c1cc(Cn2ncc(C(F)(F)F)n2)nn1-c1ncccc1Cl [Example 148] | – | 100 | 100 | 3.18
15 | CCNC(=O)c1cc(Cl)cc(Cl)c1NC(=O)c1cc(Cn2ncc(C(F)(F)F)n2)nn1-c1ncccc1Cl [Example 149] | – | 100 | 100 | 3.2
16 | O=C(NCC1CC1)c1cc(Cl)cc(Cl)c1NC(=O)c1cc(Cn2ncc(C(F)(F)F)n2)nn1-c1ncccc1Cl [Example 152] | – | 100 | 100 | 3.48
17 | O=C(NC1CCC1)c1cc(Cl)cc(Cl)c1NC(=O)c1cc(Cn2ncc(C(F)(F)F)n2)nn1-c1ncccc1Cl [Example 153] | – | 100 | 100 | 3.56
18 | N#CCNC(=O)c1cc(Cl)cc(Cl)c1NC(=O)c1cc(Cn2ncc(C(F)(F)F)n2)nn1-c1ncccc1Cl [Example 154] | – | 100 | 100 | 2.9
19 | Cc1cc(I)cc(C(=O)NC(C)C2CC2)c1NC(=O)c1cc(Cn2ncc(C(F)(F)F)n2)nn1-c1ncccc1Cl (stereo not drawn) [Example 158] | – | 100 | 100 | 4.05
20 | Cc1cc(I)cc(C(=O)NC2CC2)c1NC(=O)c1cc(Cn2ncc(C(F)(F)F)n2)nn1-c1ncccc1Cl [Example 159] | – | 100 | 100 | 3.45
